Here are results for five compounds from patent US20110065735A1, “SUBSTITUTED QUINAZOLINES” (Shire LLC, priority 2008, published 2011).

Data set [1] deals with megakaryocytopoiesis. As to the kind of experiment: inhibition of TPO-induced megakaryocytopoiesis (differentiation of human CD34+ stem cells into megakaryocytes). In kind it is cell-based. The conditions noted are these: read-out: anti-megakaryocytic IC50. The text has this: Such activity may be assessed using a well established model. Assessment of the in vitro anti-megakaryocytic activity—and potentially therefore the platelet lowering capability—of the anagrelide prodrugs can be determined using the model of megakaryocytopoiesis (Cohen-Solal et al., Thromb. Haemost. 1997, 78:37-41 and Cramer et al., Blood, 1997, 89:2336-46). This involves examining the differentiation of human CD34^+ stem cells into megakaryocytes which ultimately give rise to blood platelets.

Data set [2] deals with human phosphodiesterase III (PDE III). As to the kind of experiment: PDE III inhibition. The data set is classed as biochemical.
Data set [3] is described as follows: human pharmacokinetics of anagrelide and its metabolite.
Data set [4] relates to megakaryocytopoiesis. The settings on record: cited from earlier work.
For data set [5] the following is noted: in vivo; cited from earlier work.
A short description of another data set: aqueous solubility. In kind it is physicochemical.
Another data set in a line: in vivo. The settings on record: dog. On the procedure: The potential benefit of improved water solubility on the absorption of these open-ring analogues was shown in a comparative bioavailability study in the dog. Using the unsubstituted ethyl-5,6-dichloro-3,4-dihydro-2-(1H)-iminoquinazoline-3-acetate HBr as a model compound, a comparison was made of the systemic availability of anagrelide when given as this compound or as anagrelide itself in equimolar doses (7.7 & 6.1 mg/kg respectively).
The lesser variability was consistent with more efficient absorption. This study illustrated the potential benefits of the open-ring prodrugs to improve absorption.

In data set [6] the target is human phosphodiesterase III (PDE III). The settings on record: cited from earlier work.
In data set [7] the test system is erythroid or myelomonocytic differentiation. The settings on record: stimulated by erythropoietin or granulocyte-macrophage colony-stimulating factor; cited from earlier work.
A short description of data set [8]: conversion of prodrug to anagrelide in human plasma (LC/MS-MS). The data set is classed as in vitro ADME. The settings on record: spiked 100 ng/mL, room temperature, first point of measurement (immediately after mixing). The procedure:
Such prodrugs are likely to be extremely rapidly and completely cyclised in plasma to the closed ring 3-alkylanagrelide analogues. […] Human plasma was spiked with anagrelide prodrug (final concentration 100 ng/mL). Immediately after mixing, and at 15, 30, 45 and 60 minutes afterward samples were analysed for anagrelide prodrug and anagrelide.

Like-named read-outs stand apart in the source and are kept apart here. A value given as a limit tells only on which side of the number the result lay.

`CC1(C)C(=O)NC2=Nc3ccc(Cl)c(Cl)c3CN21` [3,3-dimethyl anagrelide]: in the data set with megakaryocytopoiesis [1], the IC50 (commonly the concentration at which inhibition is half-maximal) was around 160 nM.

`O=C1NC2=Nc3ccc(Cl)c(Cl)c3CN2C1O` (stereo not drawn) [3-hydroxyanagrelide]: in data set [2], the “potency as PDE III inhibitor relative to anagrelide” value is recorded as “over 40 fold”. In addition, the “in vivo exposure relative to parent drug” value in [3] is recorded as 2-3 fold. Further, the “potency in inhibition of megakaryocytopoiesis relative to parent drug” value in the data set on megakaryocytopoiesis [4] was “no more potent than the parent drug”. The typical half-life in [5] is 2.5 h.

In the case of `O=C1CN2Cc3c(ccc(Cl)c3Cl)N=C2N1` [Anagrelide, 6,7-dichloro-1,5-dihydroimidazo[2,1-b]-quinazolin-2(3H)-one], the IC50 is 27 nM in the data set on megakaryocytopoiesis [1] (Homo sapiens); around 26 nM in the data set on megakaryocytopoiesis [4] (estimated, background statement, read-out: IC50 inhibition of TPO-induced megakaryocytopoiesis); around 29 nM in data set [6]. Further, the solubility (in general, how much of the substance goes into solution per volume) in the data set “aqueous solubility” (aqueous, pH 7, aqueous buffer, read-out: aqueous solubility) is below 10 µg/mL. Also, in “in vivo” (male), the metabolite-to-drug exposure ratio was 1.5. Also, the AUC – broadly, concentration integrated over time – in the data set “in vivo” (male, AUC for anagrelide, range) lay in the range of 21.6 to 188 ng·h/mL. In the data set “in vivo” (male, Cmax for anagrelide, range), the Cmax (as a rule, the highest concentration seen after dosing) was 9.5 to 44.3 ng/mL. Further, the “effect on erythroid or myelomonocytic differentiation” value in [7] is “does not affect”. Further, the first pass effect in data set [5] is listed as above 50%. Moreover, in [5], the typical half-life was 1.5 h.

In “aqueous solubility” (distilled water), `Br.CCOC(=O)CN1Cc2c(ccc(Cl)c2Cl)NC1=N` [ethyl-5,6-dichloro-3,4-dihydro-2-(1H)-iminoquinazoline-3-acetate HBr] had a solubility of around 5500 µg/mL. Also, the “prodrug remaining in human plasma” value in [8] is listed as “no prodrug could be found”. Moreover, the metabolite-to-drug exposure ratio in “in vivo” is recorded as 0.9. Moreover, in “in vivo” (6.1 mg/kg), the “fold higher Cmax for anagrelide than after anagrelide itself” value is “approximately 17 fold” and the “mean fold higher AUC for anagrelide than after anagrelide itself” value came to 16 fold.

Turning to `Cc1[nH]c(=O)c(C#N)cc1-c1ccncc1` [milrinone], the IC50 in data set [6] is 170 to 350 nM.
